Assay results as given in patent publication US10106532B2, “Inhibitors of beta-hydroxylase for treatment of cancer” (MIDWESTERN UNIVERSITY, priority 2012, dated 2018).

Assays:
ASPH [1] = molecular target: T1, ASPH (Homo sapiens, UniProt Q12797); assay: binding to ASPH by isothermal titration calorimetry
T1 sequence (Q12797 1-758): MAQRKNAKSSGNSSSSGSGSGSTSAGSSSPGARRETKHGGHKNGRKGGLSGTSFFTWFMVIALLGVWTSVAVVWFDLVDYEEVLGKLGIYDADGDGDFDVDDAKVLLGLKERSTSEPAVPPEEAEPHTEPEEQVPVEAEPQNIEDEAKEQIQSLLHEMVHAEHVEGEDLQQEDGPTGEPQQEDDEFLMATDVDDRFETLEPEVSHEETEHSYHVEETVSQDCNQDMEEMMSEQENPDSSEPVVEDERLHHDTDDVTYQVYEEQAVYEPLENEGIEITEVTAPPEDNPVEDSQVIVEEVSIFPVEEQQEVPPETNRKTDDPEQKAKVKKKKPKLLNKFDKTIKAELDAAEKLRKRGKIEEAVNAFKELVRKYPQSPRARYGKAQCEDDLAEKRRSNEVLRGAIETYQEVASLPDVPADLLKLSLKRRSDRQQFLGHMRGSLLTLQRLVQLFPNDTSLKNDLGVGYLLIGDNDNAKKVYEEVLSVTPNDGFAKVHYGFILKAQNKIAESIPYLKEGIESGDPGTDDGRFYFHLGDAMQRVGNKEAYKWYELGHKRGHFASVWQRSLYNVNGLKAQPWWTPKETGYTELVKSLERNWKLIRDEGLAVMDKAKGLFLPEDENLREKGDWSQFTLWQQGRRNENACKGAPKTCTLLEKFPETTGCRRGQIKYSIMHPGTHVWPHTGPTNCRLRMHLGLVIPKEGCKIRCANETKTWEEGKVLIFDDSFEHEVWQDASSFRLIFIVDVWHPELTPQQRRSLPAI
Excerpt: In the second step arylhydroxytetronimide was sulfonylated with phenylmethansulfonyl chloride in dry tetrahydrofuran to yield compounds of formula 1 (shown below). Compounds were characterized by 1H and 13C nuclear magnetic resonance, high resolution mass spectroscopy, high performance liquid chromatography, infra-red spectroscopy, melting point, elemental analysis and binding to ASPH by isothermal titration calorimetry.
Candidate parent compounds were selected as inhibitors for β-hydroxylase activity based on crystal structure of the catalytic site in the C-terminal region of ASPH and computer assisted drug design.

FOCUS cells = assay: MTT assay (cell proliferation, metabolic activity); type: cell-based, human; conditions: 24 hours
Procedure: (§1) A MTT assay was performed to evaluate the effect of MO-1-1100 on cell proliferation and viability. MTT is reduced to purple formazan in living cells. FOCUS cells were used as a high ASPH expressing human HCC cell line. […] The MTT assay measures cellular metabolic activity via NAD(P)H-dependent cellular oxidoreductase enzymes. […] In order to evaluate the effect of long-term exposure of MO-1-1100, the colony formation assay (an assay of malignant potential and phenotype) in which cells were treated with inhibitor for 3 weeks was performed.

FOCUS = assay: cell viability; type: cell-based, human; conditions: 5 μM
Procedure: as §1

Hep3B = assay: cell viability; type: cell-based, human; conditions: 5 μM
ASPH [2] = molecular target: T1, ASPH; assay: high throughput 14CO2 capture enzymatic assay for ASPH β-hydroxylase activity (ASPH mAb capture from lysates of treated FOCUS cells); type: biochemical; design: endogenous in cells; host or cells: FOCUS cells (human hepatocellular carcinoma line)
Procedure: In yet another aspect, the disclosure provides a method determining ASPH activity by contacting an EGF-like domain peptide with a detectably-labeled α-ketoglutarate and ASPH enzyme and measuring β-hydroxylase activity. In one embodiment, said α-ketoglutarate is ^14C-labelled, and wherein β-hydroxylase activity is measured by detecting liberated ^14CO2. In one embodiment, said liberated ^14CO2 is captured on a filter and radioactivity quantified. […] In one embodiment, said EGF-like domain comprises the amino acid sequence of […] (SEQ ID NO:1). In one embodiment, said EGF-like domain peptide comprises the consensus sequence of CDXXXCXXKXGNGXCDXXCNNAACXXDGXDC (SEQ ID NO: 2).
FIG. 3A is a diagram of the biochemical reaction catalyzed by ASPH derived from PC cell lysates. FIG. 3B is a cartoon illustrating the read-out to quantify ASPH activity in PC cells and tumors. FIG. 3C is an image of membrane was obtained by a phosphor-imager after a 16 hour exposure of the trapping filter to a phospho-screen. FIG. 3D is a bar graph showing intensities were calculated by Image J software and compared to a DMSO control. Vertical bars represent standard deviation. These figures show methods of measurement and data relating to ASPH catalytic activity.
EGF and EGF-like domains are well known in the art and generally include six cysteine residues which have been shown (in EGF) to be involved in disulfide bonds. The main structure is a two-stranded beta-sheet followed by a loop to a C-terminal short two-stranded sheet. Subdomains between the conserved cysteines vary in length. Examples include those described in Davis, C G, 1990, New Biol. 2(5):410-9; Blomquist et al., 1984, Proc Natl Acad Sci USA. 81(23):7363-7; Hommel et al., […], J Mol Biol. 227(1):271-82; Doolittle et al., 1984, Nature. 307(5951):558-60; Appella et al., 1988, FEBS Lett. 231(1):1-4; Sorkin A., 2001, Biochem Soc Trans. August; 29(Pt 4):480-4; each of which is hereby incorporated by reference). FIGS. 3A-C represents the strategy for development and characterization of the performance of an assay to measure ASPH enzymatic activity. FIG. 3A describes the biochemical reaction catalyzed by ASPH. FIG. 3B depicts the read-out of the assay. Protein lysates were extracted from FOCUS cells (high level of ASPH cell surface expression) treated with 1-10 μM of each parent compound for 24 hours. The lysates were added into 96 well-plates coated with ASPH monoclonal antibodies (mAbs) to add an antigen specific (ASPH) capture step to the assay design. After incubation and washing, only ASPH is captured on each well. The reaction is carried out with 60 μM of an EGF domain containing 39AA peptide, 100 μM FeCl2 and 40 μM ^14C labeled α-ketoglutarate were added into each well. The ^14CO2 was captured on a glass fiber membrane soaked in Ca(OH)2. […] The compound was further characterized for clinical use as an anti-tumor agent for PC and HCC and other ASPH-expressing tumors.

Compound: NC1=C(OS(=O)(=O)Cc2ccccc2)C(=O)C(c2ccc(Cl)cc2)O1 (racemic) [MO-1-1100]
- ASPH binding (ASPH [1]): confirmed to demonstrate ASPH binding
- OD (optical density) value, MTT (FOCUS cells): dose-dependently decreased
- cell viability, inhibition rate (FOCUS): 37.9%
- cell viability, inhibition rate (Hep3B): 60%
- identified as hits (screening for inhibition of β-hydroxylase activity) (ASPH [2]): identified as hits
- β-hydroxylase activity (ASPH [2]; 1 μM): substantially inhibits
- ASPH enzymatic inhibitory activity (β-hydroxylase) (ASPH [2]; concentration not given): inhibit
